Reference: patent US20090227671A1, “Prevention and treatment of atherosclerosis with lithospermate B” (Industry-Academic Cooperation Foundation, priority 2005, published 2009)

Tests used:
Type in all cases: cell-based, Sprague-Dawley rats
Akt = assay: Western blot of Akt phosphorylation in VSMC induced by PDGF-BB; settings: for decrease of Akt phosphorylation: 30 μM LAB, 20 mM NAC, 40 μM LY294002, 1 h, then PDGF-BB 10 min, FIG. 4C
Protocol: (§1) VSMC was washed with PBS and then dissolved in lysis buffer (25 mM Tris HCl, pH 7.4, 25 mM NaCl, 25 mM NaF, 25 mM sodium pyrophosphate, 1 mM sodium vanadate, 2.5 mM EDTA, 2.5 mM EGTA, 0.05% (wt/vol) Triton X-100, 0.5% (wt/vol) SDS, 0.5% (wt/vol) deoxycholate, 0.5% (wt/vol) Nonidet P-40, […], and 1 mM PMSF). The cells were collected and centrifuged at 13,000 rpm for 15 min and the protein concentration of the resulting supernatant was measured by Bradford assay. The proteins were denatured and were subjected to SDS-PAGE and then blotted onto nitrocellulose membranes. The membranes were placed in 5% (w/v) non-fat dry milk in TBS with 0.1% Tween20 (TBS-T) and then placed at room temperature for 3 hrs. The blots were placed at 4° C. along with anti-ERK1/2 or anti-Akt antibodies (Cell signaling Technologh, Berely. Mass., USA) for 16 hrs. The membranes were washed 4 times with TBS-T, added with anti-rabbit IgG antibody conjugated with horseradish peroxidase (1:2,000 diluent) and then placed at room temperature for 1 hr. The immunoreactive bands detected by ECL reagents were developed by Hyperfilm-ECL (Amersham Life Science, Little Chalfont, UK). The bands showing positive responses were quantitated by densitometry and then compared with that of control.
(§2) In FIG. 1B, it is shown that both U0126 (20 μM) and LY294002 (40 μM) inhibited activities of LDH and MTT induced by PDGF-BB. As a way to investigate the signal transduction pathway involved in VSMC proliferation induced by PDGF-BB, an experiment was conducted to examine whether PDGF-BB activates a relatively lower signal transduction pathway such as ERK1/2 and Akt.

ERK1/2 = assay: Western blot of ERK1/2 phosphorylation in VSMC induced by PDGF-BB
Protocol: as §1, §2

[1] = system: vascular smooth muscle cells; assay: VSMC proliferation induced by PDGF-BB (LDH and MTT assays); settings: data not shown
From the text: Vascular smooth muscle cells ('VSMC' hereinafter) were separated from thoracic aorta of a Sprague-Dawley weighted about 100-150 g by using collagenase digestion method and then cultured them according to the method disclosed in previous studies [[…], et al. Role of p44/p42 MAP kinase in the age-dependent increase in vascular smooth muscle cell proliferation and neointimal formation. Arterioscler Thromb Vasc Biol. Feb. 1 2003; 23(2):204-210.; Hamaguchi A, Kim S, Izumi Y, et al. Contribution of extracellular signal-regulated kinase to angiotensin II-induced transforming growth factor-beta1 expression in vascular smooth muscle cells. Hypertension. July 1999; 34(1):126-131]. […] The VSMC was treated in a culture medium not containing serum for 24 hrs prior to treatment with PDGF-BB, and the reaction according to the presence or absence of PDGF-BB was analyzed after pretreating with LAB or other reagents. […] The cells were then washed twice with PBS, lysed by using 0.5% Triton-X100, and then the activity of lactate dehydronase (LDH) was measured by using CytoTox-ONETM assay kit (Promega, Madison, Wis., USA) with fluorescence at […]. […]

[2] = system: vascular smooth muscle cells; assay: VSMC migration induced by PDGF-BB (modified Boyden chamber); settings: PDGF-BB 10 ng/mL as chemoattractant, 16 hrs
Protocol: The migration of VSMC with 8 μm of pores was measured by using modified Boyden chamber method [Brown C, Pan X, Hassid A. Nitric oxide and C-type atrial natriuretic peptide stimulate primary aortic smooth muscle cell migration via a cGMP-dependent mechanism: relationship to microfilament dissociation and altered cell morphology. Circ Res. Apr. 2 1999; 84(6):655-667], which utilizes collagen-coated transwell tissue culture inserts consisting of polycarbonate membrane. 3.0×10^6 cells/mL of the above vascular smooth muscle cells were allowed to float in a culture medium without serum, treated with LAB with various concentrations and then cultured at 37° C. for 30 min. Then, the cells were treated with either 0.5 mL DMEM without serum or 0.5 mL DMEM without serum along with PDGF-BB 10 ng/mL and then placed in the lower part of a chamber. 100 μL of the folating materials of the above cells (final 3.0×10^5 cells/well) was added to the upper part of the chamber and cultured at 37° C. for 16 hrs. The cells were then fixed, dyed with hematoxylin, and filters were dried and developed.
It is known that […] plays an important role in proliferation of VSMC as well as development of atherosclerosis. To investigate whether LAB decreases the migration of VSMC induced by PDGF-BB, an experiment was performed as follows by using the aforementioned modified Boyden chamber method.

[3] = system: intracellular reactive oxygen species; assay: Intracellular reactive oxygen species in VSMC (DCF fluorescence); settings: PDGF-BB 10 ng/mL vs control
Protocol: The amount of reactive oxygen species in cells was measured as described in the previous report [Hamaguchi A, Kim S, Izumi Y, et al. Contribution of extracellular signal-regulated kinase to angiotensin II-induced transforming growth factor-beta1 expression in vascular smooth muscle cells. Hypertension. July 1999; 34(1):126-131]. VSMC was cultured in a culture medium without serum for 24 hrs to stop cell proliferation and then pretreated with LAB with various concentrations of 1, 5, 10, 20, 30 μM for 1 hr. The cells were treated with either 10 ng/mL of PDGF-BB for 10 min or with 100 μM H2O2 for 1 min and then cultured in the presence of 5-(and-6)-chloromethyl-2′,7′-dichlorohydrofluorescein diacetate(CM-H2DCF-DA: Molecular Probes Inc., Eurogene, Oreg., USA) in the dark room for 10 min and cultured cells and generation of reactive oxygen species were observed by using fluorescent microscope.
First, the amount of intracellular reactive oxygen species generated by PDGF-BB was measured by using peroxide-sensitive fluorophore DCF. As shown in FIG. 3A (B-1), the amount of intracellular reactive oxygen species generated by PDGF-BB evaluated with DCF fluorescence was 2.7 times greater. […] In this experiment, LAB was treated with PDGF-BB for 10 min. When LAB was pretreated, the amount of DCF fluorescence was decreased as compared to when it was treated only with PDGF-BB [FIG. 3A(A)]. […] Further, LAB decreased the activity of hydrogen peroxide, which increases the generation of intracellular reactive oxygen species, in proportion to its concentration (FIG. 3A(C)).

Compound: O=c1cc(N2CCOCC2)oc2c(-c3ccccc3)cccc12 [LY294002, (2-(4-morpholinyl)-8-phenyl)-4H-1-benzopyran-4-one, reference compound]
- decrease of Akt phosphorylation (Akt): 3.5 folds

Compound: CC(=O)N[C@@H](CS)C(=O)O [NAC, N-acetylcysteine, reference compound]
- decrease of ERK1/2 phosphorylation (ERK1/2; 30 μM LAB, 20 mM NAC, 1 h, then PDGF-BB 10 min, FIG. 5C): 0.6 fold
- decrease of Akt phosphorylation (Akt): 3.4 folds

Compound: Oc1ccc(-c2nc(-c3ccncc3)c(-c3ccc(F)cc3)[nH]2)cc1 [SB202190, reference compound]
- inhibitory activity against VSMC proliferation induced by PDGF-BB [1]: no distinct inhibitory activity

Compound: PDGF-BB: platelet-derived growth factor (Sigma-Aldrich), stimulus of VSMC proliferation and migration [reference compound]
- increase of VSMC migration [2]: about 60%
- amount of intracellular reactive oxygen species (DCF fluorescence), increase [3]: 2.7 times
- increase of ERK1/2 activity (ERK1/2; treated with PDGF-BB 10 ng/mL, FIG. 5A): 11 folds
- increase of Akt activity (Akt; treated with PDGF-BB 10 ng/mL, FIG. 4A): 7 folds
